The record followed here is patent US7863332B2, “Biaromatic compound activators of PPARγ receptors and cosmetic/pharmaceutical compositions comprised thereof” (Galderma Research & Development, priority 2004, dated 2011).

As usually defined, the melting point is the temperature of the solid-liquid transition.

The target in one data set is T1, PPARγ (Homo sapiens, UniProt P37231).
T1 sequence (P37231 238-505 limits assumed): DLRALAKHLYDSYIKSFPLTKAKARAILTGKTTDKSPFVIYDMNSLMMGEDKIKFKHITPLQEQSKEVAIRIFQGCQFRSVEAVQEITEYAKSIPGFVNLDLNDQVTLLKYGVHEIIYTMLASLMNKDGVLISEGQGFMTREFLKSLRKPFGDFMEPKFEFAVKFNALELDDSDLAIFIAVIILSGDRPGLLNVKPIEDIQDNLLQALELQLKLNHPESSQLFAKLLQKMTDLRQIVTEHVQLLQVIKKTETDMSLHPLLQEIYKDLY
The experiment in a line: Cross-curve PPAR transactivation test (PPARγ). The format is cell-based. Particulars: HeLN cells, Gal-hPPARγ, luciferase reporter; cross curves against reference agonist, Schild regression; n.a means not active; read-out: PPAR gamma Kd app. How it is done:
(§1) The activation of PPAR receptors with an agonist (activator) in HeLN cells leads to the expression of a reporter gene, luciferase, which, in the presence of a substrate, generates light. The modulation of the PPAR receptors is measured by quantifying the luminescence produced after incubating the cells in the presence of a reference agonist. The ligands displace the agonist from its site. The measurement of the activity is performed by quantifying the light produced. This measurement makes it possible to determine the modulatory activity of the compounds according to the invention by determining the constant that is the affinity of the molecule for the PPAR receptor. Since this value can fluctuate depending on the basal activity and the expression of the receptor, it is referred to as Kd apparent (KdApp in nM).
(§2) To determine this constant, “cross curves” of the test product against a reference agonist are produced in a 96-well plate: 10 concentrations of the test product plus a concentration 0 are arranged in a line, and 7 concentrations of the agonist plus a concentration 0 are arranged in a column. This is 88 measurement points for 1 product and 1 receptor. The remaining 8 wells are used for repeatability controls.
(§3) Measurements are also taken for total agonist controls with the same products.
(§4) The HeLN cell lines used are stable transfectants containing the plasmids ERE-βGlob-Luc-SV-Neo (reporter gene) and PPAR (α, δ, γ) Gal-hPPAR. These cells are inoculated into 96-well plates at a rate of 10 000 cells per well in 100 μl of DMEM medium without phenol red and supplemented with 10% of defatted calf serum. The plates are then incubated at 37° C. and 7% CO2 for 16 hours.
(§5) The various dilutions of the test products and of the reference ligand are added at a rate of 5 μl per well. The plates are then incubated for 18 hours at 37° C. and 7% CO2. The culture medium is removed by turning over and 100 μl of a 1:1 PBS/luciferin mixture are added to each well. After 5 minutes, the plates are read by the luminescence detector.
(In a reporter assay the amount or activity of a reporter protein is the signal.)

In a further data set the target is T2, PPARδ (Homo sapiens, UniProt Q03181).
T2 sequence (Q03181 171-441 limits assumed): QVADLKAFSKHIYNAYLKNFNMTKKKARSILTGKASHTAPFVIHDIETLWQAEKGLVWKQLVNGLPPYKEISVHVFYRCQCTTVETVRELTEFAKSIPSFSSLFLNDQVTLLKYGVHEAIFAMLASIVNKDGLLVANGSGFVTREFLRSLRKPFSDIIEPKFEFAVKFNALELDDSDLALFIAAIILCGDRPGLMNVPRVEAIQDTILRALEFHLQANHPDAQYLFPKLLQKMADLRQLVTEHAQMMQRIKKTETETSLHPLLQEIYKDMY
The data set is described as follows: Cross-curve PPAR transactivation test (PPARδ). The data set is classed as cell-based. Particulars: HeLN cells, Gal-hPPARδ, luciferase reporter; cross curves against reference agonist, Schild regression; n.a means not active; read-out: PPARs delta Kd app. Here is the method: as §1, §2, §3, §4, §5

For another data set, the target named is T3, PPARα (Homo sapiens, UniProt Q07869).
T3 sequence (Q07869 202-468 limits assumed): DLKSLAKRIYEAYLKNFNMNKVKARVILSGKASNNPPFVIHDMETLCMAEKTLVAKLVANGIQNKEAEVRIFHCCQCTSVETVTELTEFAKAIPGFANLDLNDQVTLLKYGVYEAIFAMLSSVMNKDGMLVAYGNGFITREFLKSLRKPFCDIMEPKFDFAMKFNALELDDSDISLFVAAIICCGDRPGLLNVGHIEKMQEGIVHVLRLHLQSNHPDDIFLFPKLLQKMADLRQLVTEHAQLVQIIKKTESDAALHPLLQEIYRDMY
The experiment in a line: Cross-curve PPAR transactivation test (PPARα). The data set is classed as cell-based. Particulars: HeLN cells, Gal-hPPARα, luciferase reporter; cross curves against reference agonist, Schild regression; n.a means not active; read-out: PPAR alpha Kd app. Here is the method:
as §1, §2, §3, §4, §5

Compound `CN(C(=O)Nc1ccc2ccccc2c1)c1cccc(-c2ccc(CCC(=O)O)cc2)c1` [Example 7, 3-[3′-(1-methyl-3-naphthalen-2-ylureido)biphenyl-4-yl]propanoic acid] came in with a melting point of 170 to 171 °C.

In the case of `CCCCc1ccc(NC(=O)N(C)c2cccc(-c3ccc(CCC(=O)O)cc3)c2)cc1` [Example 14, 3-{3′-[3-(4-butylphenyl)-1-methylureido]biphenyl-4-yl}propanoic acid], the Kd stood at 2 nM on PPARγ, 500 nM on PPARδ and 500 nM at PPARα.

`CCCCCCCNC(=O)N(C)c1cccc(-c2ccc(CCC(=O)O)cc2F)c1` [Example 10, 3-[2-fluoro-3′-(3-heptyl-1-methylureido)biphenyl-4-yl]propanoic acid]: the melting point lay within 80 to 82 °C.

Compound `CCCCCCCNC(=S)N(C)c1cccc(-c2ccc(CCC(=O)O)cc2)c1` [Example 8, 3-[3′-(3-heptyl-1-methylthioureido)biphenyl-4-yl]propanoic acid] registered a melting point of 95 to 96 °C.

On to `CCCCCCCNC(=O)N(C)c1cccc(-c2ccc(CCC(=O)O)c(F)c2)c1` [Example 3, 3-[3-fluoro-3′-(3-heptyl-1-methylureido)biphenyl-4-yl]propanoic acid], for which the values for the Kd at PPARγ, on PPARδ and at PPARα were 4 nM, 2000 nM and 2000 nM, respectively.

Turning to `CCCCCCCNC(=O)N(C)c1cccc(-c2ccc(CCC(=O)O)cc2OCCOCC)c1` [Example 47, 3-[2-(2-ethoxyethoxy)-3′-(3-heptyl-1-methylureido)biphenyl-4-yl]propanoic acid], the Kd at PPARγ was 2 nM; at PPARα it was 1000 nM.

For `CCCCCCCNC(=O)N(C)c1cccc(-c2ccc(CCC(=O)O)cc2OC)c1` [Example 18, 3-[3′-(3-heptyl-1-methylureido)-2-methoxybiphenyl-4-yl]propanoic acid], the figures for the Kd on PPARγ, on PPARδ and at PPARα were 4 nM, 250 nM and 2000 nM, respectively.

For the compound `CCCCCCCNC(=O)N(C)c1cccc(-c2ccc(CCC(=O)NO)cc2)c1` [Example 6, 3-[3′-(3-heptyl-1-methylureido)biphenyl-4-yl]-N-hydroxypropionamide], the melting point lay within 100 to 101 °C.

As for `CCCCCCCNC(=O)N(C)c1cccc(-c2ccc(CCC(=O)O)cc2OCCCCO)c1` [Example 40, 3-[3′-(3-heptyl-1-methylureido)-2-(4-hydroxybutoxy)biphenyl-4-yl]propanoic acid], the results for the Kd on PPARγ and on PPARα were 1 nM and 8000 nM, respectively.

Consider `CCCCCCCNC(=O)N(C)c1cccc(-c2ccc(CCC(=O)O)cc2OCCCCl)c1` [Example 17, 3-[2-(3-chloropropoxy)-3′-(3-heptyl-1-methylureido)biphenyl-4-yl]propanoic acid], for which the results for the Kd at PPARγ and at PPARα were 1 nM and 500 nM, respectively.

Turning to `CCCCCCCNC(=O)N(C)c1cccc(-c2ccc(CCC(=O)O)cc2OCC2CC2)c1` [Example 35, 3-[2-cyclopropylmethoxy-3′-(3-heptyl-1-methylureido)biphenyl-4-yl]propanoic acid], the values for the Kd on PPARγ and at PPARδ were 1 nM and 1000 nM, respectively.

On to `CCCCOc1ccc(NC(=O)N(C)c2cccc(-c3ccc(CCC(=O)O)cc3)c2)cc1` [Example 33, 3-{3′-[3-(4-butoxyphenyl)-1-methylureido]biphenyl-4-yl}propanoic acid], for which the Kd worked out at 4 nM on PPARγ and 1000 nM on PPARδ.

With `CCCCOc1cc(CCC(=O)O)ccc1-c1cccc(N(C)C(=O)Nc2ccccc2)c1` [Example 48, 3-[2-butoxy-3′-(1-methyl-3-phenylureido)biphenyl-4-yl]propanoic acid], the figures for the Kd at PPARγ and at PPARα were 2 nM and 2000 nM, respectively.

With `CCCCCCCNC(=O)N(C)c1cccc(-c2ccc(CCC(=O)O)cc2OCCC)c1` [Example 25, 3-[3′-(3-heptyl-1-methylureido)-2-propoxybiphenyl-4-yl]propanoic acid], the Kd on PPARγ stood at 0.25 nM; at PPARδ, 120 nM; at PPARα it was 500 nM.

For the compound `CCCCCNC(=O)N(C)c1cccc(-c2ccc(CCC(=O)O)cc2OCCCCC)c1` [Example 46, 3-[3′-(1-methyl-3-pentylureido)-2-pentyloxybiphenyl-4-yl]propanoic acid], the Kd on PPARγ worked out at 0.25 nM; on PPARα, 30 nM.

Take `CCCCCCCNC(=O)N(C)c1cccc(-c2ccc(CCC(=O)O)cc2OCc2ccccc2)c1` [Example 42, 3-[2-benzyloxy-3′-(3-heptyl-1-methylureido)biphenyl-4-yl]propanoic acid]: the Kd at PPARγ is 1 nM; at PPARα, 4000 nM.

Consider `CCCCCCCNC(=O)N(C)c1cccc(-c2ccc(CCC(=O)O)cc2OCCC(F)(F)F)c1` [Example 37, 3-[3′-(3-heptyl-1-methylureido)-2-(3,3,3-trifluoropropoxy)biphenyl-4-yl]propanoic acid], for which the Kd at PPARγ turned out to be 2 nM; at PPARδ, 2000 nM; on PPARα it was 250 nM.

`CCCCOc1ccc(NC(=O)N(CC)c2cccc(-c3ccc(CCC(=O)O)cc3)c2)cc1` [Example 34, 3-{3′-[3-(4-butoxyphenyl)-1-ethylureido]biphenyl-4-yl}propanoic acid]: the Kd was found to be 2 nM on PPARγ, 8 nM on PPARδ and 500 nM at PPARα.

In the case of `CCCCCCCNC(=O)N(C)c1cccc(-c2ccc(/C=C/C(=O)O)cc2OCc2ccccc2)c1` [Example 24, (E)-3-[2-benzyloxy-3′-(3-heptyl-1-methylureido)biphenyl-4-yl]acrylic acid], the Kd turned out to be 4 nM on PPARγ, 2000 nM on PPARδ and 500 nM on PPARα.

Consider `CCCCCCCNC(=O)N(C)c1cccc(-c2ccc(CCC(=O)O)cc2OCCCCC)c1` [Example 45, 3-[3′-(3-heptyl-1-methylureido)-2-pentyloxybiphenyl-4-yl]propanoic acid], for which the Kd was 0.25 nM on PPARγ and 120 nM on PPARα.

Turning to `CCCCCCCNC(=O)N(C)c1cccc(-c2ccc(CCC(=O)O)cc2OCCOC)c1` [Example 15, 3-[3′-(3-heptyl-1-methylureido)-2-(2-methoxyethoxy)biphenyl-4-yl]propanoic acid], the figures for the Kd on PPARγ, on PPARδ and at PPARα were 2 nM, 2000 nM and 2000 nM, respectively.

For `CCCCCNC(=O)N(C)c1cccc(-c2ccc(CCC(=O)O)cc2OCCOCC)c1` [Example 49, 3-[2-(2-ethoxyethoxy)-3′-(1-methyl-3-pentylureido)biphenyl-4-yl]propanoic acid], the Kd on PPARγ came out at 2 nM; on PPARα, 2000 nM.

`CCCCCCNC(=O)N(C)c1cccc(-c2ccc(CCC(=O)O)cc2)c1` [Example 11, 3-[3′-(3-hexyl-1-methylureido)biphenyl-4-yl]propanoic acid] showed a melting point of 119 to 120 °C.

With `CCCCCCCNC(=O)N(C)c1cccc(-c2ccc(CCC(=O)O)cc2OCc2cccc(F)c2)c1` [Example 43, 3-[2-(3-fluorobenzyloxy)-3′-(3-heptyl-1-methylureido)biphenyl-4-yl]propanoic acid], the Kd on PPARγ came out at 2 nM; at PPARα it was 2000 nM.

`CCCCCCCNC(=O)N(C)c1cccc(-c2ccc(/C=C/C(=O)O)cc2F)c1` [Example 9, (E)-3-[2-fluoro-3′-(3-heptyl-1-methylureido)biphenyl-4-yl]acrylic acid] registered a melting point of 130 to 131 °C.
